# Measured values reported in article PMC7793531 (International Journal of Molecular Sciences, 2020).
# pIC50: −log10 of the molar value. Starred links: 1 amine or outer side, 2 acyl side, 3 side chain; linkers in the order of their positions; H or OH if unused. Non-standard residues stand in square brackets, D forms with d. Residues, ends and D or L forms follow the SMILES beside them. Groups on a side chain read outwards from the residue. ξ: configuration not given here. *: point of attachment. Oic(3aξ,7aξ) = O=C(O)[C@@H]1CC2CCCCC2N1; X1 = N=C(N)NCCCC[C@H](N)CN*; Dab = NCC[C@H](N)C(=O)O; CO = O=C([*:1])[*:2]
# Experiments:
# VEGF-A165/NRP-2 complex = molecular target: T1, VEGF-A165/NRP-2 complex (Homo sapiens, UniProt O60462); assay: Competitive ELISA-like assay, VEGF-A165/NRP-2 complex formation; type: binding; details: tested 0.1–10 µM
# T1 construct: purchased R&D Systems
# T1 sequence (O60462 23-864 limits assumed): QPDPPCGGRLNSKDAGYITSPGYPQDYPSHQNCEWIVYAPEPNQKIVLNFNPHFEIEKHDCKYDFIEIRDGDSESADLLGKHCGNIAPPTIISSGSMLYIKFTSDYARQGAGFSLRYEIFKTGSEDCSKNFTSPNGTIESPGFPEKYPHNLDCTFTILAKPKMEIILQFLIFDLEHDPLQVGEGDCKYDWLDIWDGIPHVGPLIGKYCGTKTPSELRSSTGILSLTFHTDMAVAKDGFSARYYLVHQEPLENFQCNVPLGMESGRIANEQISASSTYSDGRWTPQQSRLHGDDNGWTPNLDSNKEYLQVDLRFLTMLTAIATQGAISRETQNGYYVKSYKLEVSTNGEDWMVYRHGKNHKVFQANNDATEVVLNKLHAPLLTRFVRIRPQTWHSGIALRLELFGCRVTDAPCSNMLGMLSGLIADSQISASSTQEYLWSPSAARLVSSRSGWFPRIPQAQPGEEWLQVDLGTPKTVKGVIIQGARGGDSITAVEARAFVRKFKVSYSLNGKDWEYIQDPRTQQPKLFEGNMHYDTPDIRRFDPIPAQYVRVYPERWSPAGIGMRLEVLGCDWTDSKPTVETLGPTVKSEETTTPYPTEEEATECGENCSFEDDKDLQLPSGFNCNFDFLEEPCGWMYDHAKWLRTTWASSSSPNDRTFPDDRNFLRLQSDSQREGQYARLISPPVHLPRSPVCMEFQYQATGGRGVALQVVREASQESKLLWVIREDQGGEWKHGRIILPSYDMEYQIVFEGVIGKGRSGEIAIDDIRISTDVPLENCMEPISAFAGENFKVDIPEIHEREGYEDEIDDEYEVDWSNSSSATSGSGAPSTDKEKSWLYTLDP
# Text: (§1) Amino acid sequence homology for primary structures of NRP-1 and NRP-2 is 44% [81, 82]. Structural studies have shown that both receptors bind VEGF-A165 using a conserved binding pocket core, formed by the b1 subdomain loops. VEGF-A165 interacts also with VEGF-R1 and R2 receptors by different fragments encoded by exons 1–5 [84, 85]. Affinity studies were done using modified ELISA-like assay, performed in the same manner as affinity tests for NRP-1 after optimization of method for individual protein. […] However, this value is more than two times higher compared to VEGF-A165/NRP-1 complex inhibition.
# (§2) This method was previously described for NRP-1 [44, 45, 46]. […] Next, 100 µL chemiluminescent substrate was added, and luminescence was quantified using Tecan Infinite F200Pro microplate reader (Männedorf, Switzerland). […] Percentages of inhibition were calculated by the following formula:100% − [[(S − N)/(P − N)]∙100%](1) where S is the signal intensity measured in wells with urea–peptide hybrid. The IC50 of each urea–peptide hybrid was calculated using the nonlinear regression function with GraphPad Prism Version-5.01 (GraphPad Software, San Diego, CA, USA). […]
# [1] = molecular target: T2, VEGF-A165/VEGF-R1 complex (Homo sapiens, UniProt P17948); assay: Competitive ELISA-like assay, VEGF-A165/VEGF-R1 complex formation; type: binding
# T2 construct: purchased R&D Systems
# Text: as §1, §2
# [2] = In vitro enzymatic stability in human blood serum (LC-SWATH-MS); type: in vitro ADME; details: human blood serum (pooled from four healthy persons), 37 °C, after 96 h, read-out: compound still intact
# Procedure: Rapid renal clearance and enzymatic degradation are classified as most important disadvantages of peptides as drugs. Covalent linkage to plasma proteins or chemical modifications, including amide bond modifications, might improve their half-lives. We performed proteolytic stability studies in human blood serum to investigate whether the introduction of urea bonds affected the half-lives of compounds from each of synthesized group of hybrids. Compounds 3, 6 and 7 were incubated with human serum at 37 °C. Samples were taken at different time intervals and analyzed using LC-SWATH-MS [88, 89, 90]. […] Hybrids 6 and 7 were stable toward enzymatic degradation, with 50% of each compound still being intact after 96 h (Figure 5). […] Overall, it can be concluded that the substitution of an amide bond with a urea bond has a positive effect on the proteolytic stability of the examined inhibitors.
# The study was conducted in full accordance with ethical principles in accordance with the ICH E6 (R2) Guideline for Good Clinical Practice and the Code of Good Customs in Science developed by the Polish Academy of Sciences. Signed consent for using serum was obtained from volunteers. The Rector’s Commission for Ethics of Scientific Research with Human Participation, University of Warsaw, Warsaw, Poland gave the ethical approval (approval number 51/2020). Human blood from four healthy persons was directly drawn into evacuated tubes and left undisturbed at room temperature for 1 h to clot. Tubes were centrifuged at 2500× g for 10 min to prevent possible platelet activation. Serum was pipetted out of the blood collection tubes, pooled and collected in microtubes.
# A degradation assay was adapted from a method described previously. Human blood serum was preactivated in Eppendorf ThermoMixer® Comfort (Hamburg, Germany) at 37 °C for 20 min (350 rpm). Next, 20 μL of aqueous urea–peptide hybrid stock solution was added to give ∼750 μg/mL final compound concentration, and incubation was continued. At selected time intervals, 50 μL of the mixture was collected and quenched by adding 200 μL of ACN:H2O:FA mixture (89:10:1, v:v:v). The obtained suspension was vortexed for 1 min (3000 min^−1) and centrifuged for 10 min in 4 °C (11,000× g). 100 μL of supernatant was collected and lyophilized. The samples reconstituted in 1 mL of 10 mM ammonium formate with 0.1% FA were subjected to LC-MS. Relative concentration at time intervals was calculated using peak area of either individual or most intense fragment of compound of interest. Analyst software version 1.7.1 was used for data acquisition, Peak View 2.2 and MultiQuant 2.1 (Sciex, ON) were used for data processing. Detailed analytical data can be found in Supplementary Materials (Figures S17–S45). […]
# T2 sequence (P17948 27-756 limits assumed, one chain of several): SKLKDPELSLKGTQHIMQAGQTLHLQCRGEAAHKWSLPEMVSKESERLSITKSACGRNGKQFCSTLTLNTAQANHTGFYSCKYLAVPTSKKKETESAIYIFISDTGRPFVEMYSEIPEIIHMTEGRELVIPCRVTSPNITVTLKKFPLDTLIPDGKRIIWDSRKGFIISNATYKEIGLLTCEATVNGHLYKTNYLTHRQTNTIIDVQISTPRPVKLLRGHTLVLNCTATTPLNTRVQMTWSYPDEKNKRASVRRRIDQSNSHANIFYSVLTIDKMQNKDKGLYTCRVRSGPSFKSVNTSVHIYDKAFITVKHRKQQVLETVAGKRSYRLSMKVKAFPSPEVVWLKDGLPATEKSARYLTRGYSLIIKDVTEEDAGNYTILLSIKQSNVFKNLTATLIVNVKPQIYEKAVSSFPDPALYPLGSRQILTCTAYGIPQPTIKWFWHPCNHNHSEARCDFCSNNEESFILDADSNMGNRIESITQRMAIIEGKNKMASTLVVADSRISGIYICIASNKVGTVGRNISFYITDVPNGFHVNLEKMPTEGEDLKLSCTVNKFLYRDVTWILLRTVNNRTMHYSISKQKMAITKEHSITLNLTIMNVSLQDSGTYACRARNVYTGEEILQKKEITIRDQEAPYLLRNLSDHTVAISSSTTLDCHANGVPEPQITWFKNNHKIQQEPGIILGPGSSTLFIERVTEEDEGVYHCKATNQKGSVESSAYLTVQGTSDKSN
smiles,measurement,setting,value
"N=C(N)NCCCC[C@H](N)CNC(=O)NCC[C@H](N)C(=O)N[C@@H](CCN)C(=O)N1C2CCCCC2C[C@H]1C(=O)N[C@@H](CCCNC(=N)N)C(=O)O (stereo partly drawn) [Compound 6, H-Dab(hArg^U)Dab-Oic-Arg-OH] (H-[Dab]([CO-X1])[Dab][Oic(3aξ,7aξ)]R-OH)",pIC50,VEGF-A165/NRP-2 complex,6.32
same,"IC50, VEGF-A165/VEGF-R1 complex formation",[1],no affinity
same,remaining at 96 h,[2],50%
